Holding throughout (type): biochemical
The target in experiment [1] is T1, yrEnCL3 (EnCL3, E. nipponicum cathepsin L3) (Eudiplozoon nipponicum, UniProt A0A0K1L960).
T1 construct: Pichia pastoris X-33 (pPICZalpha B), His-tag; full transcript 368 residues
Briefly: fluorogenic peptidase inhibition assay (AMC release). As to conditions: read-out: % remaining activity at 10 uM.

Experiment [2] concerns the target T2, yrEnCL1 (EnCL1, E. nipponicum cathepsin L1) (Eudiplozoon nipponicum, UniProt A0A0K1L8K1).
T2 construct: Expressed as pro-enzyme in Pichia pastoris X-33 (pPICZalpha B), His-tag, self-processed in medium to ~28 kDa partially processed form, partially purified; full transcript 317 residues
The description is as above. The note with it: read-out: % remaining activity at 10 uM.

Experiment [3] addresses T1, yrEnCL3 (EnCL3, E. nipponicum cathepsin L3). Nature of the experiment: fluorogenic AMC release. As to conditions: 50 uM substrate, 2 mM DTT, citrate/phosphate buffer, pH optimum 6, 28 °C.
For experiment [4], the target named is T3, yrEnCB (EnCB, E. nipponicum cathepsin B) (Eudiplozoon nipponicum, UniProt A0A2P1FSY4).
T3 construct: Pichia pastoris X-33 (pPICZalpha B), His-tag; self-processed, deglycosylated with endoglycosidase F1, ~29 kDa; full transcript 382 residues
Nature of the experiment: fluorogenic AMC release. The note with it: 50 uM substrate, 2 mM DTT, citrate/phosphate buffer, pH optimum 5, 28 °C.

Experiment [5] has as its target T2, yrEnCL1 (EnCL1, E. nipponicum cathepsin L1). Nature of the experiment: fluorogenic AMC release. As to conditions: 50 uM substrate, 2 mM DTT, citrate/phosphate buffer, pH optimum 5.5, 28 °C; partially purified enzyme.

Where a SMILES comes first, the peptide text is derived from it. Where no end group is shown, it is not given here. The star is where a group is joined. AMC = Cc1cc(=O)oc2cc(N*)ccc12; Cbz = O=C(OCc1ccccc1)*

T2 sequence (A0A0K1L8K1 entry or part of it): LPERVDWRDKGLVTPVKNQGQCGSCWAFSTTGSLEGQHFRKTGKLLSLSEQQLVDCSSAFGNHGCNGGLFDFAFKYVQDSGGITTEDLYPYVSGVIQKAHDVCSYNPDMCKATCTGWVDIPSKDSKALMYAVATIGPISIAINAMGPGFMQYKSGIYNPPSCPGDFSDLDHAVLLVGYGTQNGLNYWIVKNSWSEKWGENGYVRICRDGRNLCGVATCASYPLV
T1 sequence (A0A0K1L960 entry or part of it): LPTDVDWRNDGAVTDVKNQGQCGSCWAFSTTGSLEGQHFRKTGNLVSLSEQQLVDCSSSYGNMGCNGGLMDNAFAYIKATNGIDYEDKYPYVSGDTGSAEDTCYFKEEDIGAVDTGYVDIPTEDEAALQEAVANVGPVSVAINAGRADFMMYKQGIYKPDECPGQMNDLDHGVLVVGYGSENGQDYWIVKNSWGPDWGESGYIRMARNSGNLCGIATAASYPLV
T3 sequence (A0A2P1FSY4 entry or part of it): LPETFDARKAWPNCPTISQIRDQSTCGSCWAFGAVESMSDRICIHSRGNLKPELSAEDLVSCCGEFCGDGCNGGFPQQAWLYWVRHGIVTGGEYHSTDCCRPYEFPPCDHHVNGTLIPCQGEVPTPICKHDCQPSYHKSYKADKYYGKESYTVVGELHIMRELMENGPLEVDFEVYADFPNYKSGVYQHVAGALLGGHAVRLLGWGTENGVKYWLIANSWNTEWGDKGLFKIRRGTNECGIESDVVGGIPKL

A word on the remaining activity: it is the activity still measured, relative to the control. For RKLLW-NH2 [iCL], in experiment [1], the remaining activity at 10 µM was around 40%.
As to `CCCNC(=O)[C@H]1O[C@@H]1C(=O)N[C@H](C(=O)N1CCC[C@H]1C(=O)O)[C@@H](C)CC` [CA-074, N-[L-3-trans-propylcarbamoyloxirane-2-carbonyl]-Ile-Pro-OH], the remaining activity at 10 µM in experiment [2] was around 70%; in experiment [1], 45 to 65%.
Take `Cc1cc(=O)oc2cc(NC(=O)[C@H](CCCNC(=N)N)NC(=O)[C@H](Cc3ccccc3)NC(=O)OCc3ccccc3)ccc12` [Z-Phe-Arg-AMC] (Cbz-Phe-Arg-{AMC}): the “fluorogenic AMC release” value in experiment [3] was “Both EnCLs efficiently hydrolysed the FR substrate, and to a lesser extent the LR”; in experiment [4] it was “The preferred substrate for yrEnCB was the FR, while RR was cleaved less efficiently”; in experiment [5] it was “Both EnCLs efficiently hydrolysed the FR substrate, and to a lesser extent the LR”.
Regarding `Cc1cc(=O)oc2cc(NC(=O)[C@H](CCCNC(=N)N)NC(=O)[C@H](CC(C)C)NC(=O)OCc3ccccc3)ccc12` [Z-Leu-Arg-AMC], the “fluorogenic AMC release” value in experiment [3] is “Both EnCLs efficiently hydrolysed the FR substrate, and to a lesser extent the LR”; in experiment [5] it was “Both EnCLs efficiently hydrolysed the FR substrate, and to a lesser extent the LR”.

Values taken from paper PMC5840727, “Cysteine peptidases of Eudiplozoon nipponicum: a broad repertoire of structurally assorted cathepsins L in contrast to the scarcity of cathepsins B in an invasive species of haematophagous monogenean of common carp” (Parasites & Vectors, 2018).
